The test system of data set [1] is paclitaxel induced peripheral neuropathy. Kind of data set: Reversal of allodynia induced by paclitaxel in mice (s.c. or p.o., von Frey frequency method). In kind it is in vivo, c57bl/6 mice. Conditions: Mus musculus; for inhibition in vivo at 3 mg/kg: po, 1 h, 3 mg/kg p.o., tested 60 min after dosing, read-out: Screen @ 3 mg/kg po (% MPE); for inhibition in vivo at 1 mg/kg: sc, 0.5 h, 1 mg/kg s.c., tested 30 min after dosing, read-out: Screen @ 1 mg/kg sc (% MPE). Summed up:
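Neuropathy was induced in mice by paclitaxel (6 mg/kg i.p., days 1, 3, 5, 7) or oxaliplatin (4 mg/kg i.p., days 1-5), with re-testing about 14 days later. Compounds were given s.c. (tested at 30 min) or p.o. (tested at 60 min; paclitaxel only). A 0.4 g von Frey filament was applied ten times per paw, and % non-response was converted to % MPE.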

Data set [2] has as its target human sphingosine-1-phosphate receptor 3 (S1P3) (Homo sapiens (Human), UniProt Q99500). Kind of data set: Inhibition of cAMP production (HTRF), S1P3 CHO-K1 cells. It counts as cell-based. Conditions: for hS1P3 cAMP pEC50: inhibition of cAMP production; for Emax: CHO-K1, efficacy normalized to fingolimod, read-out: hS1P3 cAMP SPAN.
Data set [3] has as its system peripheral blood lymphocytes. Kind of data set: Peripheral blood lymphocytes (lymphopenia) in c57bl/6 mice, acute and chronic studies. In kind it is in vivo. Conditions: 6 mg/kg sc, 7 days; for Lymphopenia: Effect and Doses, mg/kg, sc: peripheral blood lymphocytes vs vehicle. The method, boiled down: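 Mice dosed subcutaneously: acute, single 3 mg/kg (n=5/group), blood taken at set time points; chronic, seven days in dose response (up to 3 mg/kg) or screening at 6 mg/kg (n=6-8/group), blood taken 45 min after final dose. Lymphocyte counts (10^3 cells/μl) by haematology analyser, compared with vehicle.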

Sequence of human sphingosine-1-phosphate receptor 3 (S1P3) (Q99500 whole entry): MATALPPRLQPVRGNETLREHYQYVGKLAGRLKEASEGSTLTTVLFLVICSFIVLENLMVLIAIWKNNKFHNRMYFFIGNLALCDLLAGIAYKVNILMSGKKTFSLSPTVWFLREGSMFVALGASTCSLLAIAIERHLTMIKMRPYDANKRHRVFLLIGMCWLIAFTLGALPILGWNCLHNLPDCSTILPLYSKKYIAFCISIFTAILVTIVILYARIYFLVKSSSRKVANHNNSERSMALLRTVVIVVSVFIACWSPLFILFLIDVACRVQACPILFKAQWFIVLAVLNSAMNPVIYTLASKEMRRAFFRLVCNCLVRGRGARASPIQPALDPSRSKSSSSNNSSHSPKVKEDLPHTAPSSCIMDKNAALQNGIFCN

Regarding `COc1ccc(-c2noc(-c3ccc4c(c3)nnn4CC(C)(C)O)n2)c(C)c1` [Compound 26, 1-{5-[3-(4-methoxy-2-methylphenyl)-1,2,4-oxadiazol-5-yl]-1H-1,2,3-benzotriazol-1-yl}-2-methylpropan-2-ol], in data set [1], the inhibition in vivo at 3 mg/kg is < 50% and the inhibition in vivo at 1 mg/kg is < 50%. In addition, the “hS1P3 cAMP pEC50” value in data set [2] is <5.0.
Regarding `Cc1ccccc1-c1nc(-c2ccc3c(c2)nnn3C(C)C)no1` [Compound 99, 3-(1-isopropyl-1H-benzo[d][1,2,3]triazol-5-yl)-5-(o-tolyl)-1,2,4-oxadiazole], in data set [1], the inhibition in vivo at 3 mg/kg is > 50% and the inhibition in vivo at 1 mg/kg is > 50%. Besides, the “hS1P3 cAMP pEC50” value in data set [2] is reported as <5.0. Also, the “Lymphopenia: Effect and Doses, mg/kg, sc” value in data set [3] is reported as “no change: 6 mg/kg, 7 days”.
As for `CCC1(CC)CC(=O)c2cc(-c3nc(-c4cccnc4)no3)ccc2O1` [Compound 103, 2,2-diethyl-6-[3-(pyridin-3-yl)-1,2,4-oxadiazol-5-yl]-3,4-dihydro-2H-1-benzopyran-4-one], in data set [1], the inhibition in vivo at 3 mg/kg is > 50% and the inhibition in vivo at 1 mg/kg was > 50%. Also, in data set [2], the Emax was < 50% and the “hS1P3 cAMP pEC50” value is <5.0. Besides, in data set [3], the “Lymphopenia: Effect and Doses, mg/kg, sc” value is listed as “no change: 6 mg/kg, 7 days”.
`CCC1(CC)CC(=O)c2cc(-c3nc(-c4cccnc4OC)no3)ccc2O1` [Compound 147, 2,2-diethyl-6-(3-(2-methoxypyridin-3-yl)-1,2,4-oxadiazol-5-yl)chroman-4-one]: in data set [1], the inhibition in vivo at 1 mg/kg is > 50%. Further, in data set [2], the Emax is < 50% and the “hS1P3 cAMP pEC50” value is listed as <5.0. In addition, the “Lymphopenia: Effect and Doses, mg/kg, sc” value in data set [3] is “no change: 6 mg/kg, 7 days”.
As to `CCC1(CC)CC(=O)c2cc(-c3nc(-c4ccncc4OC)no3)ccc2O1` [Compound 212, 2,2-diethyl-6-(3-(3-methoxypyridin-4-yl)-1,2,4-oxadiazol-5-yl)chroman-4-one], the inhibition in vivo at 1 mg/kg in data set [1] was > 50%. In data set [2], the Emax was < 50% and the “hS1P3 cAMP pEC50” value is given as <5.0.
As to `COc1ccccc1-c1nc(-c2ccc3c(c2)nnn3C(C)C)no1` [Compound 287, 3-(1-isopropyl-1H-benzo[d][1,2,3]triazol-5-yl)-5-(2-methoxyphenyl)-1,2,4-oxadiazole], in data set [1], the inhibition in vivo at 1 mg/kg is < 50%. Moreover, in data set [2], the “hS1P3 cAMP pEC50” value is listed as <5.0. The “Lymphopenia: Effect and Doses, mg/kg, sc” value in data set [3] is given as “no change: 6 mg/kg, 7 days”.
For `Cc1ccccc1-c1noc(-c2ccc3c(c2)nnn3C(C)C)n1` [Compound 293, 5-[3-(2-methylphenyl)-1,2,4-oxadiazol-5-yl]-1-(propan-2-yl)-1H-1,2,3-benzotriazole], in data set [1], the inhibition in vivo at 1 mg/kg is > 50%. For the same compound, in data set [2], the Emax is < 50% and the “hS1P3 cAMP pEC50” value is on record as <5.0. In addition, the “Lymphopenia: Effect and Doses, mg/kg, sc” value in data set [3] is “no change: 6 mg/kg, 7 days”.
For `CC(C)n1nnc2cc(-c3nc(-c4cccc5c4OCCC5)no3)ccc21` [Compound 304, 3-chroman-8-yl-5-(1-isopropylbenzotriazol-5-yl)-1,2,4-oxadiazole], the inhibition in vivo at 1 mg/kg in data set [1] is > 50%. In data set [2], the “hS1P3 cAMP pEC50” value was >5.0. Further, the “Lymphopenia: Effect and Doses, mg/kg, sc” value in data set [3] is reported as “no change: 6 mg/kg, 7 days”.
In the case of `CC(C)n1nnc2cc(-c3nc(-c4ccncc4C(F)(F)F)no3)ccc21` [Compound 455, 1-(propan-2-yl)-5-{3-[3-(trifluoromethyl)pyridin-4-yl]-1,2,4-oxadiazol-5-yl}-1H-1,2,3-benzotriazole], the inhibition in vivo at 3 mg/kg in data set [1] was > 50%. For the same compound, in data set [2], the Emax is < 50% and the “hS1P3 cAMP pEC50” value is <5.0. For the same compound, the “Lymphopenia: Effect and Doses, mg/kg, sc” value in data set [3] is reported as “no change: 6 mg/kg, 7 days”.
In the case of `CCC1(CC)CC(=O)c2cc(-c3nc(-c4cn[nH]c4)no3)ccc2O1` [Compound 469, 6-(3-(1H-pyrazol-4-yl)-1,2,4-oxadiazol-5-yl)-2,2-diethylchroman-4-one], the inhibition in vivo at 3 mg/kg in data set [1] was > 50%. Also, in data set [3] (significance vs vehicle given), the “Lymphopenia: Effect and Doses, mg/kg, sc (change in peripheral blood lymphocytes)” value is reported as −28% not stat sig: 6 mg/kg, 7 days.

These data come from patent publication US11912693B2, “Compounds for modulating S1P1 activity and methods of using the same” (TREVENA, INC., priority 2017, dated 2024).
